Laboratory results taken from ChEMBL document CHEMBL1201862, “PubChem BioAssay data set” (2004).
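Tested at 5 concentrations; 48 h exposure; 96-well plates; endpoints linearly interpolated, else capped at highest concentration. GI50 = concentration required for 50% inhibition of growth.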 Activity calls are given as the source filed them. Rule as the data show it: active = GI50 up to about 1.1 µM and inactive = higher.

Key:
Assay in all cases: growth of human tumour cells (NCI), 48 h
DMS-273 = test system: DMS-273
OVCAR-8 = test system: OVCAR-8
OVCAR-4 = test system: OVCAR-4
HCC 2998 = test system: HCC 2998
HCT-116 = test system: HCT-116
DMS-114 = test system: DMS-114
SF-268 = test system: SF-268
K562 = test system: K562
COLO 205 = test system: COLO 205
SW-620 = test system: SW-620
SK-MEL-2 = test system: SK-MEL-2
NCI-H226 = test system: NCI-H226
786-0 = test system: 786-0
RPMI-8226 = test system: RPMI-8226
UACC-257 = test system: UACC-257
SN12C = test system: SN12C
KM12 = test system: KM12
MOLT-4 = test system: MOLT-4
Hs-578T = test system: Hs-578T
MDA-MB-435 = test system: MDA-MB-435

Compound	GI50 (DMS-273)	GI50 (OVCAR-8)	GI50 (OVCAR-4)	GI50 (HCC 2998)	GI50 (HCT-116)	GI50 (DMS-114)	GI50 (SF-268)	GI50 (K562)	GI50 (COLO 205)	GI50 (SW-620)	GI50 (SK-MEL-2)	GI50 (NCI-H226)	GI50 (786-0)	GI50 (RPMI-8226)	GI50 (UACC-257)	GI50 (SN12C)	GI50 (KM12)	GI50 (MOLT-4)	GI50 (Hs-578T)	GI50 (MDA-MB-435)
C1OC1C1CO1 (centres undefined)	10.4 µM (inactive)	> 100 µM (inactive)	> 100 µM (inactive)	96.4 µM (inactive)	95.1 µM (inactive)	10.4 µM (inactive)	6.43 µM (inactive)	80.2 µM (inactive)	> 100 µM (inactive)	86.3 µM (inactive)	> 100 µM (inactive)	> 100 µM (inactive)	24.2 µM (inactive)	> 100 µM (inactive)	27.9 µM (inactive)	93.1 µM (inactive)	> 100 µM (inactive)	3.28 µM (inactive)	–	–
O=C(N/C(=C\c1ccc(/C=C(\NC(=O)c2ccccc2)c2nc3ccccc3s2)cc1)c1nc2ccccc2s1)c1ccccc1	3.71 µM (inactive)	2.34 µM (inactive)	5.08 µM (inactive)	14.7 µM (inactive)	8.2 µM (inactive)	11.4 µM (inactive)	6.3 µM (inactive)	5.38 µM (inactive)	5.12 µM (inactive)	3.84 µM (inactive)	6.62 µM (inactive)	19.1 µM (inactive)	1.82 µM (inactive)	3.64 µM (inactive)	5.18 µM (inactive)	3.99 µM (inactive)	8.45 µM (inactive)	4.99 µM (inactive)	–	–
Cc1nc2c(nc1C)C(=O)c1cc(O)ccc1C2=O	> 59 µM (inactive)	53.2 µM (inactive)	> 85.5 µM (inactive)	> 67.6 µM (inactive)	77.6 µM (inactive)	37.2 µM (inactive)	74.3 µM (inactive)	> 70.3 µM (inactive)	23.1 µM (inactive)	61.4 µM (inactive)	55.6 µM (inactive)	> 100 µM (inactive)	> 95.5 µM (inactive)	> 51.1 µM (inactive)	> 54.6 µM (inactive)	> 73.5 µM (inactive)	> 100 µM (inactive)	> 66.7 µM (inactive)	–	–
N[C@H](C(=O)O)[C@@H](Cl)CC(=O)O	> 100 µM (inactive)	> 100 µM (inactive)	> 100 µM (inactive)	> 100 µM (inactive)	> 100 µM (inactive)	> 100 µM (inactive)	> 100 µM (inactive)	> 100 µM (inactive)	> 100 µM (inactive)	> 100 µM (inactive)	> 100 µM (inactive)	> 100 µM (inactive)	> 100 µM (inactive)	> 100 µM (inactive)	> 100 µM (inactive)	> 100 µM (inactive)	> 100 µM (inactive)	> 100 µM (inactive)	–	–
O=[N+]([O-])c1ccc2nc(/C(=N/Nc3ccccc3)C(O)c3ccco3)c(O)nc2c1 (centres undefined)	> 100 µM (inactive)	> 100 µM (inactive)	> 100 µM (inactive)	> 100 µM (inactive)	> 100 µM (inactive)	40 µM (inactive)	25.4 µM (inactive)	> 100 µM (inactive)	> 100 µM (inactive)	> 100 µM (inactive)	> 100 µM (inactive)	15.7 µM (inactive)	> 100 µM (inactive)	58.3 µM (inactive)	> 100 µM (inactive)	> 100 µM (inactive)	> 100 µM (inactive)	> 100 µM (inactive)	–	–
COc1cccc2c1CCc1ccccc1CC2=O	> 100 µM (inactive)	> 100 µM (inactive)	39.2 µM (inactive)	> 100 µM (inactive)	> 100 µM (inactive)	> 100 µM (inactive)	> 100 µM (inactive)	> 100 µM (inactive)	> 100 µM (inactive)	> 100 µM (inactive)	> 100 µM (inactive)	> 100 µM (inactive)	> 100 µM (inactive)	> 100 µM (inactive)	> 100 µM (inactive)	> 100 µM (inactive)	> 100 µM (inactive)	> 100 µM (inactive)	–	–
Nn1c(-c2ccccc2)nc2ccc(Br)cc2c1=O	40.2 µM (inactive)	35.4 µM (inactive)	28.6 µM (inactive)	62.7 µM (inactive)	35.3 µM (inactive)	31.8 µM (inactive)	30.7 µM (inactive)	29.3 µM (inactive)	32.1 µM (inactive)	46.6 µM (inactive)	57.1 µM (inactive)	57.5 µM (inactive)	47.2 µM (inactive)	30.9 µM (inactive)	> 100 µM (inactive)	42.7 µM (inactive)	86.1 µM (inactive)	17.9 µM (inactive)	–	–
CN(C)c1nc(N(C)C)n2nc(-c3ccccc3[N+](=O)[O-])nc2n1	33.5 µM (inactive)	> 100 µM (inactive)	> 100 µM (inactive)	> 100 µM (inactive)	35.6 µM (inactive)	> 100 µM (inactive)	> 100 µM (inactive)	> 100 µM (inactive)	70.1 µM (inactive)	10.1 µM (inactive)	> 100 µM (inactive)	> 100 µM (inactive)	49.9 µM (inactive)	89.7 µM (inactive)	> 100 µM (inactive)	> 100 µM (inactive)	> 100 µM (inactive)	> 100 µM (inactive)	–	–
O=C1C(Cl)C(c2cccc(O)c2)N1n1cnc2ccccc2c1=O (centres undefined)	> 100 µM (inactive)	> 100 µM (inactive)	> 100 µM (inactive)	> 100 µM (inactive)	89.9 µM (inactive)	> 100 µM (inactive)	> 100 µM (inactive)	49.1 µM (inactive)	> 100 µM (inactive)	> 100 µM (inactive)	> 100 µM (inactive)	21.6 µM (inactive)	> 100 µM (inactive)	40.7 µM (inactive)	> 100 µM (inactive)	> 100 µM (inactive)	–	57.5 µM (inactive)	–	–
CCc1cccc(C(C)C)c1NC(=O)C(=O)C(Cc1nc2ccccc2nc1O)C(=O)OC (centres undefined)	61.4 µM (inactive)	> 100 µM (inactive)	> 100 µM (inactive)	> 100 µM (inactive)	40.7 µM (inactive)	14.3 µM (inactive)	67.9 µM (inactive)	> 100 µM (inactive)	43.8 µM (inactive)	–	> 100 µM (inactive)	> 100 µM (inactive)	> 100 µM (inactive)	39.2 µM (inactive)	> 100 µM (inactive)	> 100 µM (inactive)	> 100 µM (inactive)	> 100 µM (inactive)	–	–
COc1ccccc1NC(=O)C1=C(C)NC(C)=C(C(=O)Nc2ccccc2OC)C1c1ccc(C)cc1	40 µM (inactive)	58.9 µM (inactive)	43.4 µM (inactive)	97.5 µM (inactive)	29.9 µM (inactive)	51.9 µM (inactive)	> 100 µM (inactive)	18.2 µM (inactive)	12.6 µM (inactive)	> 100 µM (inactive)	48.2 µM (inactive)	10.5 µM (inactive)	> 100 µM (inactive)	37.8 µM (inactive)	51.5 µM (inactive)	> 100 µM (inactive)	43 µM (inactive)	–	–	–
CCCC(O)c1ccc2[nH]c3c(C)cc([N+](=O)[O-])c(C)c3c2c1 (centres undefined)	21.3 µM (inactive)	> 100 µM (inactive)	> 100 µM (inactive)	> 100 µM (inactive)	> 100 µM (inactive)	> 100 µM (inactive)	> 100 µM (inactive)	57.4 µM (inactive)	93.1 µM (inactive)	99.1 µM (inactive)	> 100 µM (inactive)	> 100 µM (inactive)	27.4 µM (inactive)	62.1 µM (inactive)	> 100 µM (inactive)	> 100 µM (inactive)	> 100 µM (inactive)	> 100 µM (inactive)	–	–
CCOC(=O)C(CC/C=C\c1ccccc1)N1CCC[C@H]1C(=O)OC (some centres undefined)	> 100 µM (inactive)	> 100 µM (inactive)	> 100 µM (inactive)	> 100 µM (inactive)	> 100 µM (inactive)	59.6 µM (inactive)	> 100 µM (inactive)	49.4 µM (inactive)	> 100 µM (inactive)	> 100 µM (inactive)	> 100 µM (inactive)	> 100 µM (inactive)	> 100 µM (inactive)	29.7 µM (inactive)	> 100 µM (inactive)	> 100 µM (inactive)	> 100 µM (inactive)	39.1 µM (inactive)	–	–
COc1cccc2c1C(=N)c1c(O)c3c(c(O)c1C2=O)C[C@@](O)(C(C)=O)C[C@@H]3OC1CC(N)C(O)C(C)O1 (some centres undefined)	0.0766 µM (active)	–	1.83 µM (inactive)	0.409 µM (active)	0.00745 µM (active)	0.148 µM (active)	0.00938 µM (active)	0.000159 µM (active)	0.394 µM (active)	0.199 µM (active)	1.48 µM (inactive)	0.137 µM (active)	0.171 µM (active)	0.000159 µM (active)	–	0.00771 µM (active)	0.313 µM (active)	0.000132 µM (active)	0.00123 µM (active)	< 0.01 µM (active)
Nc1nc(O)c2[nH]nnc2n1 [8-AZAGUANINE]	0.634 µM (active)	0.551 µM (active)	12.9 µM (inactive)	19.2 µM (inactive)	0.881 µM (active)	6.5 µM (inactive)	0.406 µM (active)	0.268 µM (active)	13.3 µM (inactive)	0.306 µM (active)	0.074 µM (active)	0.789 µM (active)	0.292 µM (active)	0.234 µM (active)	0.735 µM (active)	0.334 µM (active)	34.1 µM (inactive)	0.272 µM (active)	0.906 µM (active)	0.265 µM (active)
